Test results reported in ChEMBL document CHEMBL4819150, “The structural simplification of lysergic acid as a natural lead for synthesizing novel anti-Alzheimer agents” (2021).
Calls of active or inactive are those of the source. The calls are words filed in the database; no cut-off is given here.

Key:
PC-12 [1] = assay: Neuroprotective activity against rat PC12 cells under glucose and oxygen-deprived condition assessed as fold increase in cell viability at 1 uM relative to DPZ; assay type: functional
SIM-A9 [2] = assay: Neuroprotective activity against LPS-induced mouse SIM-A9 cells assessed as increase in cell viability at 1 uM relative to control; assay type: functional, cell-based
PC-12 [3] = assay: […] activity in rat PC12 cells assessed as reduction in TCN-induced ER stress by measuring increase in cell viability at 1 uM relative to control; assay type: functional, cell-based
PC-12 [4] = assay: Neuroprotective activity against rat PC12 cells under glucose and oxygen-deprived condition assessed as increase in cell viability at 1 uM relative to control; assay type: functional, cell-based
SIM-A9 [5] = assay: Antiinflammatory activity in mouse microglial SIM-A9 cells assessed as reduction in LPS-stimulated nitric oxide release at 1 uM relative to control; assay type: functional, cell-based
PC-12 [6] = assay: Neuroprotective activity against rat PC12 cells under glucose and oxygen-deprived condition assessed as increase in cell viability at 0.1 uM relative to control; assay type: functional, cell-based

SMILES | fold change (FC) (PC-12 [1]) | Activity (SIM-A9 [2]) | Activity (PC-12 [3]) | Activity (PC-12 [4]) | Activity (SIM-A9 [5]) | Activity (PC-12 [6])
O=[N+]([O-])C(Cc1c[nH]c2cccc(Br)c12)Cc1c[nH]c2cccc(Br)c12 | 10 | inactive | inactive | Active |  | 
COC(=O)/C=C/c1cccc2[nH]cc(CN(C)C)c12 | 10 | Active | Active | Active | Active | 
COC(=O)C[C@H]1c2cccc3[nH]cc(c23)C[C@@H]1[N+](=O)[O-] | 10 |  | Active | Active |  | 
CN(C)Cc1c[nH]c2cccc(Br)c12 | 10 |  | Active | Active | Active | 
CN(C)Cc1c[nH]c2cccc(/C=C/C(N)=O)c12 | 10 | Active | Active | Active | Active | 
COCc1c[nH]c2cccc(/C=C/C(=O)OC)c12 | 10 | Active | Active | Active | Active | 
COc1cc2c(cc1OC)C(=O)C(CC1CCN(Cc3ccccc3)CC1)C2 (stereo unspecified) |  | Active | Active | Active | Active | Active
